Laboratory results: patent publication US11096985B2, “Antimicrobial peptides, their variants and uses” (priority 2015, dated 2021)
Where a SMILES comes first, the peptide text is derived from it. [ ]: non-standard residue; d: D form.

Key:
[1] = test system: clinical strains of Pseudomonas aeruginosa; assay: MIC, clinical strains of P. aeruginosa; type: cell-based; design: unit: μg/ml; conditions: microdilution, Muller Hinton broth-cation adjusted, 0.02% BSA, 0.2% acetic acid
Experimental: (§1) Minimum inhibition concentrations (MICs) were determined against Escherichia coli (ATCC 25922), Staphylococcus aureus (ATCC 25923), Klebsiella pneumoniae (ATCC 10031) and Pseudomonas aeruginosa (ATCC 27853). Also clinical strains of E. coli, K. pneumoniae, E. cloacae, P. aeruginosa, Serratia marcescens, Proteus mirabilis, S. pneumoniae, Acinetobacter baumannii, A. johnsonii and S. aureus were used for MICs assays. Additionally, clinical strains of yeast including Candida albicans, C. glabrata, C. parapsilosis and C. quillermondiae were used. The susceptibility of these microorganisms to Chain peptides were determined using micro broth dilution assay. Colonies of the respective microorganism from Muller Hinton (MH) agar plates incubated overnight were suspended in MH broth media and final concentration of microorganism was adjusted to 5.0×10^5 cfu/ml. An aliquot of 10 μl of each Chain peptide, or gentamicin, tetracycline as reference antibiotics were added in differing concentrations along with 90 μl of bacterial suspension to 96 well polypropylene plates and incubated at 37° C. for 20 to 24 hours. Concentrations of Chain peptides and reference antibiotics ranged from 0.125 to 128 μg/ml and the MICs were recorded as the lowest concentration with no visual growth of bacteria. Similarly, antifungal MICs were tested in Potato dextrose broth.
(§2) Clinical strains of yeasts including Candida albicans, C. glabrata, C. parapsilosis and C. quillermondiae were also tested with the 12 Chain peptides. The minimum inhibitory concentration (MICs) varied between these peptides and are presented in Tables 4a, 4b, 4c and 5a, 5b, 5c. Peptides Chain 105, 201 and 308 are broad spectrum antimicrobials with MICs between 0.5-32 μg/ml against all the bacteria and yeasts tested, except Serratia marcescens and Proteus mirabilis, against which the MICs were between 64-128 μg/ml. Peptide Chain 306 has narrow spectrum activity against E.coli at 1 μg/ml and for the rest of the bacterial strains at >32 μg/ml (FIG. 10).

[2] = test system: clinical strains of Candida albicans; assay: MIC, clinical yeast strains, Candida albicans; type: cell-based; design: unit: μg/ml
In short: (§3)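 Clinical isolates at 5.0×10^5 cfu/ml in Mueller-Hinton broth (Potato dextrose broth for yeasts) were exposed to Chain peptides at 0.125–128 μg/ml by broth microdilution, 37 °C for 20–24 h. MIC was the lowest concentration with no visible growth.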

[3] = test system: clinical strains of C. glabrata; assay: MIC, clinical yeast strains, C. glabrata; type: cell-based, Candida glabrata; design: unit: μg/ml
In short: as §3

[4] = test system: clinical strains of Staphylococcus aureus; assay: MIC, clinical strains of S. aureus; type: cell-based; design: unit: μg/ml; conditions: microdilution, Muller Hinton broth-cation adjusted, 0.02% BSA, 0.2% acetic acid
Experimental: as §1, §2

[5] = test system: clinical strains of Proteus mirabilis; assay: MIC, clinical strains of Proteus mirabilis; type: cell-based; design: unit: µg/mL; conditions: microdilution, Muller Hinton broth-cation adjusted, 0.02% BSA, 0.2% acetic acid
Experimental: as §1, §2

[6] = test system: clinical strains of Streptococcus pneumoniae; assay: MIC, clinical strains of Streptococcus pneumoniae; type: cell-based; design: unit: µg/mL; conditions: microdilution, Muller Hinton broth-cation adjusted, 0.02% BSA, 0.2% acetic acid
Experimental: as §1, §2

[7] = test system: clinical strains of C. quillermondiae; assay: MIC, clinical yeast strains, C. quillermondiae; type: cell-based; conditions: C. quillermondiae clinical yeast strain 1
In short: as §3

[8] = test system: clinical strains of Serratia marcescens; assay: MIC, clinical strains of Serratia marcescens; type: cell-based; design: unit: µg/mL; conditions: microdilution, Muller Hinton broth-cation adjusted, 0.02% BSA, 0.2% acetic acid
Experimental: as §1, §2

[9] = test system: clinical strains of C. parapsilosis; assay: MIC, clinical yeast strains, C. parapsilosis; type: cell-based, Candida parapsilosis; design: unit: μg/ml
In short: as §3

[10] = test system: clinical strains of Enterobacter cloacae; assay: MIC, clinical strains of Enterobacter cloacae; type: cell-based; design: unit: μg/ml; conditions: microdilution, Muller Hinton broth-cation adjusted, 0.02% BSA, 0.2% acetic acid
Experimental: as §1, §2

[11] = test system: clinical strains of Klebsiella pneumoniae; assay: MIC, clinical strains of K. pneumoniae; type: cell-based; design: unit: μg/ml; conditions: microdilution, Muller Hinton broth-cation adjusted, 0.02% BSA, 0.2% acetic acid
Experimental: as §1, §2

[12] = test system: clinical strains of Escherichia coli; assay: MIC, clinical strains of E. coli; type: cell-based; design: unit: μg/ml; conditions: microdilution, Muller Hinton broth-cation adjusted, 0.02% BSA, 0.2% acetic acid
Experimental: as §1, §2

## CC(C)C[C@@H](NC(=O)[C@@H](Cc1c[nH]c2ccccc12)NC(=O)[C@@H](Cc1ccccc1)NC(=O)[C@@H](Cc1c[nH]c2ccccc12)NC(=O)[C@@H](CCCCN)NC(=O)[C@@H](CCCNC(=N)N)NC(=O)[C@H](N)Cc1c[nH]c2ccccc12)C(=O)N[C@H](Cc1ccccc1)C(=O)N[C@H](CCCCN)C(=O)N[C@H](CCCCN)C(=O)N[C@H](CCCNC(=N)N)C(=O)O [Chain309D] (H-[dW][dR][dK][dW][dF][dW][dL][dF][dK][dK][dR]-OH)
[1]; Pseudomonas aeruginosa clinical strain 1
  Minimum inhibitory concentration: 16
[1]; Pseudomonas aeruginosa clinical strain 2
  Minimum inhibitory concentration: 32
[1]; Pseudomonas aeruginosa clinical strain 3
  Minimum inhibitory concentration: 16
[1]; Pseudomonas aeruginosa clinical strain 4
  Minimum inhibitory concentration: 32
[1]; Pseudomonas aeruginosa clinical strain 5
  Minimum inhibitory concentration: 8
[2]; Candida albicans clinical yeast strain 1
  Minimum inhibitory concentration: 32
[2]; Candida albicans clinical yeast strain 2
  Minimum inhibitory concentration: 32
[2]; Candida albicans clinical yeast strain 3
  Minimum inhibitory concentration: 16
[2]; Candida albicans clinical yeast strain 4
  Minimum inhibitory concentration: 16
[2]; Candida albicans clinical yeast strain 5
  Minimum inhibitory concentration: 32
[3]; C. glabrata clinical yeast strain 1
  Minimum inhibitory concentration: 32
[3]; C. glabrata clinical yeast strain 2
  Minimum inhibitory concentration: 64
[3]; C. glabrata clinical yeast strain 3
  Minimum inhibitory concentration: 4
[3]; C. glabrata clinical yeast strain 4
  Minimum inhibitory concentration: 128
[4]; Staphylococcus aureus clinical strain 1
  Minimum inhibitory concentration: 8
[4]; Staphylococcus aureus clinical strain 2
  Minimum inhibitory concentration: 16
[4]; Staphylococcus aureus clinical strain 3
  Minimum inhibitory concentration: 8
[4]; Staphylococcus aureus clinical strain 4
  Minimum inhibitory concentration: 8
[4]; Staphylococcus aureus clinical strain 5
  Minimum inhibitory concentration: 8
[5]; Proteus mirabilis clinical strain 1
  Minimum inhibitory concentration: >128
[5]; Proteus mirabilis clinical strain 2
  Minimum inhibitory concentration: >128
[5]; Proteus mirabilis clinical strain 3
  Minimum inhibitory concentration: >128
[5]; Proteus mirabilis clinical strain 4
  Minimum inhibitory concentration: >128
[5]; Proteus mirabilis clinical strain 5
  Minimum inhibitory concentration: >128
[6]; Streptococcus pneumoniae clinical strain 1
  Minimum inhibitory concentration: 64
[6]; Streptococcus pneumoniae clinical strain 2
  Minimum inhibitory concentration: 64
[6]; Streptococcus pneumoniae clinical strain 3
  Minimum inhibitory concentration: 64
[6]; Streptococcus pneumoniae clinical strain 4
  Minimum inhibitory concentration: 64
[6]; Streptococcus pneumoniae clinical strain 5
  Minimum inhibitory concentration: 64
[7]
  Minimum inhibitory concentration: 8
[8]; Serratia marcescens clinical strain 1
  Minimum inhibitory concentration: >128
[8]; Serratia marcescens clinical strain 2
  Minimum inhibitory concentration: >128
[8]; Serratia marcescens clinical strain 3
  Minimum inhibitory concentration: >128
[8]; Serratia marcescens clinical strain 4
  Minimum inhibitory concentration: >128
[8]; Serratia marcescens clinical strain 5
  Minimum inhibitory concentration: >128
[9]; C. parapsilosis clinical yeast strain 1
  Minimum inhibitory concentration: 64
[9]; C. parapsilosis clinical yeast strain 2
  Minimum inhibitory concentration: 64
[9]; C. parapsilosis clinical yeast strain 3
  Minimum inhibitory concentration: 32
[9]; C. parapsilosis clinical yeast strain 4
  Minimum inhibitory concentration: 16
[10]; Enterobacter cloacae clinical strain 1
  Minimum inhibitory concentration: >128
[10]; Enterobacter cloacae clinical strain 2
  Minimum inhibitory concentration: 128
[10]; Enterobacter cloacae clinical strain 3
  Minimum inhibitory concentration: 64
[10]; Enterobacter cloacae clinical strain 4
  Minimum inhibitory concentration: 64
[10]; Enterobacter cloacae clinical strain 5
  Minimum inhibitory concentration: 32
[11]; Klebsiella pneumoniae clinical strain 1
  Minimum inhibitory concentration: 128
[11]; Klebsiella pneumoniae clinical strain 2
  Minimum inhibitory concentration: 32
[11]; Klebsiella pneumoniae clinical strain 3
  Minimum inhibitory concentration: >128
[11]; Klebsiella pneumoniae clinical strain 4
  Minimum inhibitory concentration: 32
[11]; Klebsiella pneumoniae clinical strain 5
  Minimum inhibitory concentration: 128
[12]; Escherichia coli clinical strain 1
  Minimum inhibitory concentration: 0.5
[12]; Escherichia coli clinical strain 2
  Minimum inhibitory concentration: 32
[12]; Escherichia coli clinical strain 3
  Minimum inhibitory concentration: 16
[12]; Escherichia coli clinical strain 4
  Minimum inhibitory concentration: 32
[12]; Escherichia coli clinical strain 5
  Minimum inhibitory concentration: 16
